Each block holds one compound with its values, some of them ahead of it.
What was measured:
CCRF-CEM = assay: NCI60 five-dose screen; format: cell-based; conditions: Homo sapiens, leukemia; for CC50: read-out: LC50 (the source's name)
K-562 = assay: NCI60 five-dose screen; format: cell-based; conditions: Homo sapiens, K562, K-562, leukemia; for CC50: read-out: LC50 (the source's name)
RPMI-8226 = assay: NCI60 five-dose screen; format: cell-based; conditions: Homo sapiens, RPMI-8226, leukemia; for CC50: read-out: LC50 (the source's name)
NCI-H226 = assay: NCI60 five-dose screen; format: cell-based; conditions: Homo sapiens, NCI-H226, NSC lung cancer; for CC50: read-out: LC50 (the source's name)
NCI-H460 = assay: NCI60 five-dose screen; format: cell-based; conditions: Homo sapiens, NCI-H460, NSC lung cancer; for CC50: read-out: LC50 (the source's name)
NCI-H522 = assay: NCI60 five-dose screen; format: cell-based; conditions: Homo sapiens, NCI-H522, NSC lung cancer; for CC50: read-out: LC50 (the source's name)
HCC-2998 = assay: NCI60 five-dose screen; format: cell-based; conditions: Homo sapiens, HCC-2998, colon cancer; for CC50: read-out: LC50 (the source's name)
HCT-116 = assay: NCI60 five-dose screen; format: cell-based; conditions: Homo sapiens, HCT-116, colon cancer; for CC50: read-out: LC50 (the source's name)
HT29 = assay: NCI60 five-dose screen; format: cell-based; conditions: Homo sapiens, HT-29, HT29, colon cancer; for CC50: read-out: LC50 (the source's name)
SNB-19 = assay: NCI60 five-dose screen; format: cell-based; conditions: Homo sapiens, SNB-19, CNS cancer; for CC50: read-out: LC50 (the source's name)
SNB-75 = assay: NCI60 five-dose screen; format: cell-based; conditions: Homo sapiens, SNB-75, CNS cancer; for CC50: read-out: LC50 (the source's name)
LOX IMVI = assay: NCI60 five-dose screen; format: cell-based; conditions: Homo sapiens, melanoma; for CC50: read-out: LC50 (the source's name)
MDA-MB-435 = assay: NCI60 five-dose screen; format: cell-based, human; conditions: Homo sapiens; for CC50: MDA-MB-435, MDA-MB-435, melanoma, read-out: LC50 (the source's name); for GI50: MDA-MB-435, melanoma
SK-MEL-5 = assay: NCI60 five-dose screen; format: cell-based, human; conditions: Homo sapiens; for CC50: SK-MEL-5, SK-MEL-5, melanoma, read-out: LC50 (the source's name); for GI50: SK-MEL-5, melanoma
UACC-257 = assay: NCI60 five-dose screen; format: cell-based; conditions: Homo sapiens, UACC-257, melanoma; for CC50: read-out: LC50 (the source's name)
OVCAR-4 = assay: NCI60 five-dose screen; format: cell-based; conditions: Homo sapiens, OVCAR-4, ovarian cancer; for CC50: read-out: LC50 (the source's name)
OVCAR-5 = assay: NCI60 five-dose screen; format: cell-based; conditions: Homo sapiens, OVCAR-5, ovarian cancer; for CC50: read-out: LC50 (the source's name)
OVCAR-8 = assay: NCI60 five-dose screen; format: cell-based; conditions: Homo sapiens, OVCAR-8, ovarian cancer; for CC50: read-out: LC50 (the source's name)
786-0 = assay: NCI60 five-dose screen; format: cell-based; conditions: Homo sapiens, 786-0, renal cancer; for CC50: read-out: LC50 (the source's name)
ACHN = assay: NCI60 five-dose screen; format: cell-based; conditions: Homo sapiens, renal cancer; for CC50: read-out: LC50 (the source's name)
CAKI-1 = assay: NCI60 five-dose screen; format: cell-based; conditions: Homo sapiens, CAKI-1, renal cancer; for CC50: read-out: LC50 (the source's name)
DU-145 = assay: NCI60 five-dose screen; format: cell-based; conditions: Homo sapiens, DU-145, prostate cancer; for CC50: read-out: LC50 (the source's name)
Human CYP19 (aromatase) = molecular target: T1, Human CYP19 (aromatase) (Homo sapiens, UniProt P11511); assay: Aromatase inhibition assay (DBF fluorometric substrate); format: biochemical; conditions: active defined as IC50 < 12.5 µM
T1 construct: purchased GENTEST, Woburn, MA 456260; host or cells: baculovirus/insect cells
T1 sequence (P11511 1-503): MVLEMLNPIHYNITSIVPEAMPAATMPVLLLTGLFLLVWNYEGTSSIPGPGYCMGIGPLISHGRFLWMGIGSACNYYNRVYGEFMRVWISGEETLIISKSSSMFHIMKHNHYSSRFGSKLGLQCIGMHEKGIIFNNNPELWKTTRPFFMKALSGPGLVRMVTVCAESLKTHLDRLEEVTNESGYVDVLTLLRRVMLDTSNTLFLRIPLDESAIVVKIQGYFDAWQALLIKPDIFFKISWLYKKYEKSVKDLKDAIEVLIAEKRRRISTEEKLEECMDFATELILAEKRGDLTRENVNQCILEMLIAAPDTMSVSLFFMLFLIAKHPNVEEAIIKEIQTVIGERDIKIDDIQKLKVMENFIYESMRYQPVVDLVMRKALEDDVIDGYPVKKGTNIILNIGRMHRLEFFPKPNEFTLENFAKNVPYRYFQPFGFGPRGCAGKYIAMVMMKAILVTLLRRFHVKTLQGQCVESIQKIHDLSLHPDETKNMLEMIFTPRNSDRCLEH
Outline: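 Insect-cell-expressed human CYP19 Supersomes with oxidoreductase turned over DBF for 30 min at 37 °C after a 10 min 37 °C pre-incubation with cofactor. NaOH quench; product measured by fluorescence, excitation 490 nm, emission 530 nm.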

IC50 (Human CYP19 (aromatase)): 3300 ± 600 nM
SMILES: O=C(N/N=C/c1ccc(C(=O)N2CCOCC2)[nH]1)c1[nH]c2ccc(Br)cc2c1-c1ccccc1 [Derivative 3n, (E)-5-Bromo-N′-((5-(morpholine-4-carbonyl)-1H-pyrrol-2-yl)methylene)-3-phenyl-1H-indole-2-carbohydrazide]
GI50 (CCRF-CEM): 3450 nM | CC50 (CCRF-CEM): > 100 µM | GI50 (K-562): 1270 nM | CC50 (K-562): 42.7 µM | GI50 (RPMI-8226): 4500 nM | CC50 (RPMI-8226): > 100 µM | GI50 (NCI-H226): 3390 nM | CC50 (NCI-H226): 81.7 µM | GI50 (NCI-H460): 2490 nM | CC50 (NCI-H460): 54.1 µM | GI50 (NCI-H522): 1600 nM | CC50 (NCI-H522): 58.8 µM | GI50 (HCC-2998): 2310 nM | CC50 (HCC-2998): 42.9 µM | GI50 (HCT-116): 2790 nM | CC50 (HCT-116): 66.7 µM | GI50 (HT29): 2570 nM | CC50 (HT29): 38.3 µM | GI50 (SNB-19): 5.66 µM | CC50 (SNB-19): > 100 µM | GI50 (SNB-75): 809 nM | CC50 (SNB-75): 88.9 µM | GI50 (LOX IMVI): 3060 nM | CC50 (LOX IMVI): 71.2 µM | CC50 (MDA-MB-435): 55.4 µM | GI50 (MDA-MB-435): 392 nM | CC50 (SK-MEL-5): 17 µM | GI50 (SK-MEL-5): 1480 nM | GI50 (UACC-257): 11.9 µM | CC50 (UACC-257): 94.4 µM | GI50 (OVCAR-4): 2930 nM | CC50 (OVCAR-4): > 100 µM | GI50 (OVCAR-5): 5.78 µM | CC50 (OVCAR-5): > 100 µM | GI50 (OVCAR-8): 2860 nM | CC50 (OVCAR-8): 43.1 µM | GI50 (786-0): 2860 nM | CC50 (786-0): 80.7 µM | GI50 (ACHN): 4560 nM | CC50 (ACHN): > 100 µM | GI50 (CAKI-1): 1460 nM | CC50 (CAKI-1): > 100 µM | GI50 (DU-145): 3720 nM | CC50 (DU-145): > 100 µM

IC50 (Human CYP19 (aromatase)): 1400 ± 300 nM
SMILES: O=C(N/N=C/c1ccc([N+](=O)[O-])[nH]1)c1[nH]c2ccc(Br)cc2c1-c1ccccc1 [Derivative 3p, (E)-5-Bromo-N′-((5-nitro-1H-pyrrol-2-yl)methylene)-3-phenyl-1H-indole-2-carbohydrazide]
GI50 (CCRF-CEM): 382 nM | CC50 (CCRF-CEM): > 100 µM | GI50 (K-562): 365 nM | CC50 (K-562): > 100 µM | GI50 (RPMI-8226): 468 nM | CC50 (RPMI-8226): > 100 µM | GI50 (NCI-H226): 2430 nM | CC50 (NCI-H226): 46.9 µM | GI50 (NCI-H460): 421 nM | CC50 (NCI-H460): 45.9 µM | GI50 (NCI-H522): 588 nM | CC50 (NCI-H522): 19.8 µM | GI50 (HCC-2998): 1670 nM | CC50 (HCC-2998): 19.6 µM | GI50 (HCT-116): 439 nM | CC50 (HCT-116): 33.8 µM | GI50 (HT29): 550 nM | CC50 (HT29): 43.9 µM | GI50 (SNB-19): 3.34 µM | CC50 (SNB-19): 42.4 µM | GI50 (SNB-75): 482 nM | CC50 (SNB-75): 40.5 µM | GI50 (LOX IMVI): 519 nM | CC50 (LOX IMVI): 35.8 µM | CC50 (MDA-MB-435): 29.8 µM | GI50 (MDA-MB-435): 253 nM | CC50 (SK-MEL-5): 8.69 µM | GI50 (SK-MEL-5): 1020 nM | GI50 (UACC-257): 3.12 µM | CC50 (UACC-257): 48.2 µM | GI50 (OVCAR-4): 679 nM | CC50 (OVCAR-4): 35.9 µM | GI50 (OVCAR-5): 2.87 µM | CC50 (OVCAR-5): 40.9 µM | GI50 (OVCAR-8): 1020 nM | CC50 (OVCAR-8): 39 µM | GI50 (786-0): 803 nM | CC50 (786-0): 41.4 µM | GI50 (ACHN): 1260 nM | CC50 (ACHN): 38 µM | GI50 (CAKI-1): 411 nM | CC50 (CAKI-1): 34.9 µM | GI50 (DU-145): 1840 nM | CC50 (DU-145): 32.5 µM

Reference: PMC12203311, “Design, synthesis, in silico and in vitro evaluation of pyrrole–indole hybrids as dual tubulin and aromatase inhibitors with potent anticancer activities” (RSC Advances, 2025)
